Source: ChEMBL document CHEMBL1148051, “Antibiotic activity and absolute configuation of 8S-heptadeca-2(Z),9(Z)-diene-4,6-diyne-1,8-diol from Bupleurum salicifolium” (1994)
≈ marks a conversion by molar mass, not a printed value. Calls of active or inactive are those of the source. No cut-off for these calls is given here.

Key:
Bacillus subtilis = test: Antibacterial activity against Bacillus subtilis CECT 39 by rotary shaker method; assay type: functional
Pseudomonas aeruginosa = test: Antibacterial activity against Pseudomonas aeruginosa AK 958; assay type: functional, organism-based
Staphylococcus aureus = test: Antibacterial activity against Staphylococcus aureus ATCC 6538 by rotary shaker method; assay type: functional
Candida albicans = test: Antifungal activity against Candida albicans UBC1; assay type: functional, organism-based
Escherichia coli = test: Antibacterial activity against Escherichia coli CECT 99; assay type: functional, organism-based
Salmonella = test: Antibacterial activity against Salmonella sp. CECT 456; assay type: functional, organism-based

MIC (Bacillus subtilis): 10.5 mg/L (≈ 40.3 µM) | MIC (Staphylococcus aureus): 10 mg/L (≈ 38.4 µM)
Structure (SMILES): CCCCCCC/C=C\[C@H](O)C#CC#C/C=C\CO
Activity (Pseudomonas aeruginosa): inactive | Activity (Candida albicans): inactive | Activity (Escherichia coli): inactive | Activity (Salmonella): inactive
